Patent publication US11850266B2, “Cardiomyocytes and compositions and methods for producing the same” (President and Fellows of Harvard College, priority 2019, dated 2023)

Assays:
Assay type in all cases: cell-based, human
[1] = test system: iPSC-derived cardiomyocytes; experiment: Voltage (FluoVolt) analysis with Vala Kinetic Image Cytometer
Protocol: Following completion of Torin1 treatment, cardiomyocytes were dissociated as described above then replated at a density of 20,000-30,000 cells per well in a Geltrex-coated Greiner Cellstar black 96 well plate. FluoVolt dye (1:1000 from stock in the FluoVolt Membrane Potential Kit, Thermo) and Hoechst 33258 stain (20 μg/ml) in RPMI1640 (no phenol red) (supplemented with OxyFluor (Oxyrase, 1:100 dilution), 10 mM sodium lactate) were added to each well 15 minutes prior to assay. Cells were electrically stimulated with 15 V at a frequency of 0.5 pulses/sec and a pulse width of 5 msec for 5 pulses using the IC200 Kinetic Image Cytometer (Vala). Images were acquired at 20× and at a frame rate of 70 frames per second. Voltage analysis was performed using the CyteSeer image analysis software, which automatically recognizes Hoechst-stained nuclei, segments, and identifies each cell to quantify voltage data for each cell captured in the field of view (34). Cells were identified by Hoechst-stained nuclei, segmented into individual cells and automatically numbered by CyteSeer software (FIG. 4C). Within each cell, fluorescence intensity was recorded from within a circular region within each numbered, nucleated cell. […] Data from approximately 300-500 individual cells were included for analysis for each condition. Baseline fluorescence was used to normalize for variability in fluorescence intensity between individual cells. The peak rise time, CTD25 (25% duration of the calcium transient, or duration at 25% decline from maximum amplitude), CTD75 (75% duration of the calcium transient, or duration at 75% decline from maximum amplitude), T75-25 (time for voltage to decay from 75% to 25% of maximum), and downstroke velocity were quantified using the CyteSeer image analysis software.

[2] = test system: iPSC-derived cardiomyocytes; experiment: Immunocytochemistry, sarcomere length; settings: versus control, BJRiPS-CMs, FIG. 2H
Protocol: Cells were dissociated from 12 well plates after differentiation with 0.1% trypsin-EDTA and replated into Geltrex-coated 4-chamber microscope slides. Cells were fixed in 4% paraformaldehyde then permeabilized with 0.5% Triton X-100. After blocking with 5% BSA, cells were incubated with primary antibodies (Table 2) for 30 minutes at room temperature followed by incubation with the secondary antibody (Table 2) for 45 minutes at room temperature in the dark. After washing with phosphate buffered saline (PBS), Vectashield mounting agent with DAPI (for slides) or DAPI (for plates) was applied and cells were visualized with a confocal microscope (Zeiss LSM 700). Muscular thin films (MTFs) were stained in a similar manner except DAPI (1 μg/ml) was applied for 5 minutes before rinsing and transferring MTFs into PBS until imaging.

[3] = test system: iPSC-derived cardiomyocytes; experiment: Muscular thin film (MTF) contractile force; settings: Torin1 200 nM 7 days, MTFs, FIG. 2F
Protocol: Gelatin muscular thin films (MTFs) were prepared as previously described (32). Square 22×22 mm glass coverslips were covered with low adhesive tape (Patco 5560 Removable Protective Film Tape), and an Epilog Mini 24 laser engraving instrument was used to cut the tape such that two inner rectangles (3×10 mm for cantilever region and 7×10 mm for base region) were surrounded by an outer border. The larger inner rectangle was peeled away and this region was activated with 0.1 M NaOH for 5 minutes, then 0.5% (3-aminopropyl)triethoxysilane (APTES) in 95% ethanol for 5 minutes, then 0.5% glutaraldehyde solution for 30 minutes. The glass coverslips were then rinsed and dried. Next, the tape covering the smaller inner rectangle region was peeled away. A 20% w/v stock gelatin (175 g bloom, Type A, Sigma) in distilled water solution was dissolved at 65° C. for 30 minutes and an 8% w/v stock microbial transglutaminase (MTG) (Ajinomoto) in distilled water solution was dissolved at 37° C. for 30 minutes. […] The radius of curvature for each MTF was quantified using ImageJ. Thickness of the MTF was determined using a Zeiss LSM confocal microscope. […] The maximum and average systolic, diastolic, and twitch (systolic—diastolic stress) stresses were calculated for each MTF.

## CCC(=O)N1CCN(c2ccc(-n3c(=O)ccc4cnc5ccc(-c6cnc7ccccc7c6)cc5c43)cc2C(F)(F)F)CC1 [Torin1]
[1]; FluoVolt, FIG. 4E
  action potential profile: longer plateau phase and a sharper upstroke and downstroke
[1]; UCSD-CMs, FIG. 4F
  action potential peak rise time: significant decrease
[1]; UCSD-CMs, FIG. 4G
  downstroke velocity: significant increase
[1]; UCSD-CMs, FIG. 4H
  CTD25: no changes
[1]; UCSD-CMs, FIG. 4I
  CTD75: significant decrease
[1]; UCSD-CMs, FIG. 4J
  T75-25 time: significant decrease
[2]
  sarcomere length: no differences
[3]
  relative maximum systolic force versus control: ~2 fold
